Experimental data as given in US20110245171A1, “REHYDRATION COMPOSITIONS COMPRISING EPIDERMAL GROWTH FACTOR (EGF)” (priority 2004, published 2011).

Tests used:
[1] = system: piglets with spontaneous neonatal diarrhea; assay: Spontaneous neonatal diarrhea in piglets, oral EGF; type: in vivo
Source text: A pregnant sow was purchased from a local commercial supplier (Doug Hall, Airdrie, AB) approximately one week prior to due-date. The sow was housed at the University of Calgary farm in a farrowing pen. The sow was given free access to water and pig feed (Doug Hall, Airdrie, AB). Two-day old piglets were weight ranked and randomly assigned to each experimental group (see below), and treatment was initiated that day (Day 0) and animals assessed 24 hr later. […] Piglets with their sow were housed separately in contained animal facilities for the duration of the experiment at the University of Calgary farm. Housing was at 20° C., with approximate 8:16 h photoperiods.
Piglets were assigned to one of the following experimental groups: 1) untreated animals gavaged orally with 5 mL sterile PBS daily starting on Day 0, and 2) EGF-treated, gavaged orally with rhEGF in 5 mL sterile PBS at a concentration of 100 μg/kg body weight daily starting on Day 0.
The study was terminated on Day 1. A total of 10 piglets were studied, 5 were given EGF, and 5 received vehicle (untreated).
Piglets were checked daily for weight gain, production of diarrhea, and overall clinical condition (alertness, body posture, condition). In addition, daily fecal scoring was carried out twice daily (9:00 am, and 3:00 pm) as follows: 0=solid, formed stools, 1=soft stools with no perineal soiling, 2=non-bloody diarrhea with perineal soiling, 3=bloody diarrhea with perineal soiling.
All morning observations were performed between 7:00 am and 12:00 pm to avoid diurnal variations. One additional fecal scoring was carried out at 3:00 pm.

bacteria and protozoa = conditions: literature; cited from earlier work
Salmonella typhimurium = conditions: in vitro, literature; cited from earlier work
[2] = system: pathogenic strains of Escherichia coli; conditions: in vitro, literature; cited from earlier work
[3] = system: jejunal nutrient transport; conditions: cited from earlier work
K88 positive E. coli = assay: Enteropathogenic E. coli infection in piglets, oral EGF; type: in vivo
Procedure: An enteropathogenic Escherichia coli isolate obtained from Veterinary Pathology Laboratories (VPL), Edmonton, Alberta was utilized in these experiments. This strain was originally isolated from a piglet with diarrhea and is positive for Stb, Lt, and K88 (F4). This strain is referred to as K88 positive E. coli. Enteropathogenic E. coli infections produce primarily a malabsorptive diarrhea, although there is a smaller secretory component.
Bacteria were grown in LB™ broth (Difco Laboratories, Detroit, Mich.) and frozen on Microbank™ porous beads (Pro-Labs Diagnostics, Richmond Hill, ON) at −70° C. For each inoculum preparation, one bead was thawed and incubated in 20 ml sterile LB™ broth for 5 h at 37° C., 200 rpm. Then, the 20 ml starter culture was placed in 980 ml LB™ broth and incubated at 37° C. for 15 hours, 200 rpm. LB™ broth was aliquoted in 18 sterile polystyrene 50 ml tubes (Falcon), centrifuged at 3000 rpm (floor Sorval) for 10 minutes, and all pellets pooled and resuspended in 50 ml 10% […]-sterile PBS.
Inoculum: Piglets received late log phase 1×10^10 (counted by spectrophotometry, 600 nm, A=1.9) live K88 positive E. coli. Bacterial inoculum was delivered in 10% NaHCO3/sterile PBS (5 ml), followed by lactate Ringer's solution (5 ml). The inoculum (10 ml) was delivered via a 40 cm orogastric intubation tube connected to a 20 cc syringe. Total bacterial counts in inoculum were calculated via serial dilutions plated onto LB™ agar and incubated overnight at 37° C., 5% CO2.
A pregnant sow was purchased from a local commercial supplier (Doug Hall, Airdrie, AB) approximately one week prior to due-date. The sow was housed at the University of Calgary farm in a farrowing pen. The sow was given free access to water and pig feed (Doug Hall, Airdrie, AB). Two-day old piglets were weight ranked and randomly assigned to each experimental group (see below), and treatment was initiated that day (Day-1). Inoculation with live K88 positive E. coli was carried out the following day (Day 0). […]

C. parvum = conditions: literature; cited from earlier work
giardiasis = conditions: compared to untreated animals, literature; cited from earlier work
enteropathogenic E. coli = conditions: literature; cited from earlier work
Cryptosporidium parvum = conditions: in vitro, literature; cited from earlier work
[4] = system: jejunal tissue from rabbits infected with attaching-effacing E. coli (RDEC-1); assay: Jejunal 3-O-methyl glucose transport in Ussing chambers; design: species or system rabbit
Procedure: Rabbits infected with attaching-effacing E. coli (RDEC-1) were used (20). Briefly, experimental rabbits (400-600 g) were orally inoculated with 5×10^7 live E. coli in 1 mL 10% sodium bicarbonate. Controls received sodium bicarbonate only. Animals were housed individually in a level B containment room, fed commercial feed and given water ad libitum. Ten days post-infection, all animals were killed with an intra-peritoneal overdose of sodium pentabarbitone following anesthesia with halothane. A 20-cm segment of jejunum beginning 5 cm distal to the ligament of Treitz was then removed and rinsed with ice-cold Kreb's buffer. Both longitudinal and circular muscle layers were stripped from the underlying mucosa and four adjacent pieces of jejunal tissue mounted under short-circuited conditions in Ussing chambers. Both mucosal and serosal surfaces were bathed in 10 ml of oxygenated Kreb's buffer with 10 mM glucose added to the serosal surface to provide metabolic energy to the tissue, 10 mM mannitol added to the mucosal surface to osmotically balance the glucose solution, and 20 mM 3-O-methyl glucose added to both surfaces. Immediately after mounting, 10 μCi 3-O-methyl[^3H]glucose was added to either the serosal or mucosal surface and allowed to equilibrate for 20 min. 3-O-methyl glucose is a non-metabolized glucose analog. Unidirectional mucosal to serosal (Jms) and serosal to mucosal (Jsm) fluxes were then determined by measuring 3 consecutive 5 min flux intervals and an overall 15 min flux interval before and after the addition of 100 ng/ml human recombinant epidermal growth factor (rhEGF) (Austral Biologicals, San Ramon, Calif.) or vehicle to the mucosal reservoir. Net flux (Jnet) was calculated by subtracting the serosal to mucosal flux, Jsm, from the mucosal to serosal flux, Jms. Clinical symptoms were monitored including fecal shedding of the bacterium.

[5] = infected tissue treated with EGF compared to controls
[6] = infected tissue, 10 days post-infection, 100 ng/ml rhEGF on mucosal surface

## EGF: 53-amino acid human epidermal growth factor of SEQ ID NO: 1; recombinant human EGF used in the experiments
[1]; Day 1, one day after initiation of treatment, rhEGF 100 μg/kg oral, compared with vehicle
  fecal scores: significantly (P<0.05) reduced
[1]; Day 1, 5 piglets given EGF, 2 untreated died
  animals that had died: 1
[1]; EGF compared to untreated
  weight gain: did not differ
Bacteria and protozoa
  anti-protozoal effect: no direct
  bactericidal effect: no direct
Salmonella typhimurium
  epithelial bacterial translocation and invasion: inhibit
[2]
  epithelial bacterial translocation and invasion: inhibit
[3]
  SGLT1 content in the microsomal fraction: decrease
  enterocyte glucose transport: increase
[3]; following administration of octreotide, literature
  defect in glucose transport: reverse
[3]; literature
  BBMV SGLT1 content: significant increase
  amino acid transport: rapidly increases
  brush border (apical) surface area: increase
  glucose transport: rapidly increases
  ileal electroneutral NaCl absorption and brush-border Na+/H+ exchange: increase
  jejunal glutamine, alanine galactose and glycine transport: increase
[3]; mucosal EGF, literature
  Vmax for glucose uptake into brush border membrane vesicles (BBMV): increased
  Vmax for proline uptake into brush border membrane vesicles (BBMV): increased
K88 positive E. coli; EGF-treated compared to untreated, over the course of the study
  weight gain: did not differ
K88 positive E. coli; compared to untreated animals (day 3 instead of day 4)
  acceleration of return to normal fecal consistency: one day
K88 positive E. coli; rhEGF 100 μg/kg oral gavage daily from Day -1, infected Day 0, untreated: Day 4
  day by which fecal scores returned to normal (fecal score of 0 in all animals): ≤ 3 days
C. parvum
  fecal oocyte passage: decreased
giardiasis
  intestinal function: enhanced
  trophozoite colonization: inhibited
Enteropathogenic E. coli
  bacterial colonization: significantly inhibited
  diarrhea and reduced weight gain associated with the disease: prevented
  epithelial damage: reduced
Cryptosporidium parvum
  epithelial colonization: reduce
[4]; [5]
  mucosal to serosal 3-O-methyl glucose transport: did not differ
  net 3-O-methyl glucose transport: did not differ
[4]; [6]
  mucosal to serosal flux of 3-O-methyl glucose: significantly increased
  net flux of 3-O-methyl glucose: significantly increased

## TGFα: related peptide that binds to the EGF receptor [reference compound]
[3]; literature
  brush border (apical) surface area: had no effect
  glucose transport: had no effect
[3]; some studies, literature
  small intestinal absorption: increase
